System: 282377-053-R-J1-PDC tumor spheroids, viability
Experiment: Anticancer human tumor 282377-053-R-J1-PDC patient-derived colon adenocarcinoma cell line growth inhibition [TAK]
Conditions: spheroids with HUVEC and MSC; for IC50: curve of first compound; for viability, T/C: stronger effect = lower value
Text: Combinatorial screen of targeted agents with TAK-243 and ipatasertib in multi-cell type tumor spheroids
A high-throughput screen of multi-cell type tumor spheroids was designed to identify active combinations of targeted small molecules and TAK-243 or ipatasertib. Complex spheroids include a stromal component modeled by human endothelial cells (HUVEC) and fibroblasts modeled by human mesenchymal stem cells (MSCs). The concentration ranges selected for each drug and investigational agent were based upon clinically achievable concentrations if the clinical Cmax of the agent was known.
Compounds. The drugs and investigational agents: TAK-243 (785004), ipatasertib (767898), everolimus (733504), selumetinib (741078), bortezomib (756655), trametinib (758246), ixazomib (758254), vemurafenib (761431), dabrafenib (764134), sapanisertib (764658), alpelisib (765974), and copanlisib (816437), were obtained from the National Cancer Institute (NCI) Developmental Therapeutics Program Chemical Repository. The FDA-approved anticancer drug set is available from the NCI Developmental Therapeutics Program. […] The stock solutions were prepared in dimethyl sulfoxide (DMSO, Sigma-Aldrich, St. Louis, MO, cat. D2650) at 800-fold the tested concentration and stored at -70 degrees C prior to their use. All drugs and investigational agents were tested over a range starting from a high concentration at or near the clinical Cmax and decreasing in half-log increments. If the clinical Cmax for an agent had not been determined, the highest concentration tested was 10 microM.
NCI60 Cell Culture. NCI60 cell lines were obtained from the NCI Developmental Therapeutics Program Tumor Repository. For each lot of cells, the Repository performed Applied Biosystems AmpFLSTR Identifiler testing with PCR amplification to confirm consistency with the published Identifier STR profile for each cell line. Cells were kept in continuous culture for no more than 20 passages. The optimal seeding densities for each of the cell lines at each time point assessed were determined prior to performing the concentration response studies. Briefly, the NCI60 human tumor lines were grown as monolayers in RPMI 1640 medium supplemented with 10% FBS and 2 mmol/L L-glutamine.
An additional 2 lines were from the NCI60 cell line panel including melanomas, MALME-3M and SK-MEL-2. Pooled donor human umbilical vein endothelial cells (HUVEC, Lonza, cat. CC-2519) and human mesenchymal stem cells (hMSC, Lonza, cat. PT-2501) were purchased from Lonza (Walkersville, MD).
PDMR cell lines were grown in complete medium (DC medium): Dulbecco's modified Eagle's medium (DMEM)/F12 supplemented with 5% fetal bovine serum (FBS), 2 mM L-glutamine, 100 U/mL penicillin and 100 µg/ml streptomycin, 0.4 µg/ml hydrocortisone, 10 ng/ml epidermal growth factor (EGF) recombinant human protein, 24 µg/mL adenine, and 0.1 mg/mL primocin. During culture from frozen stock vials, PDMR cells were cultured in the same medium containing 10 µM Y-27632 (see Table 3). The PDCs were cultured in complete DMEM/F12 media without 10 microM Y-27632 dihydrochloride for at least two passages prior to the screen. The pooled donor HUVEC and hMSC were cultured in endothelial cell growth medium 2 (PromoCell, Heidelberg, Germany, cat. C-22011) and mesenchymal stem cell growth medium 2 (PromoCell, cat. C-28009), respectively. For all experiments, HUVEC and hMSC were used at passages </=5.
For the pre-screen, cell seeding densities were determined from a titration spanning the range from 5,000 to 313 cells per well. The mct-spheroids including 60% malignant cells, 25% HUVEC and 15% MSC dispensed as a mixture into U-bottom Ultra-Low Attachment 384-well plates (Corning, NY)
High-throughput Drug Combination Screening.
Prior to their inoculation into 384-well plates, malignant cells, HUVEC, and hMSC were removed from T flasks using TrypLE express (Thermo Fisher Scientific, cat. 12605036) and harvested by centrifugation for 5 min at 233 x g. […]
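Also: spheroids exposed to drugs for seven days before readout.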

## CC(C)n1nc(-c2ccc3oc(N)nc3c2)c2c(N)ncnc21 + CC(C)NCC(C(=O)N1CCN(c2ncnc3c2C(C)CC3O)CC1)c1ccc(Cl)cc1
Second compound 0.3 µM
  IC50: > 100 nM
Second compound 0.949 µM
  IC50: 66.6 nM
Second compound 3 µM
  IC50: 30.3 nM
Second compound 9.49 µM
  IC50: 14.7 nM
Second compound 30 µM
  IC50: 4.07 nM
Second compound 0.3 µM, first compound 0.000316 µM
  viability, T/C: 106%
Second compound 0.3 µM, first compound 0.001 µM
  viability, T/C: 103%
Second compound 0.3 µM, first compound 0.00316 µM
  viability, T/C: 95.7%
Second compound 0.3 µM, first compound 0.01 µM
  viability, T/C: 88%
Second compound 0.3 µM, first compound 0.0316 µM
  viability, T/C: 69.7%
Second compound 0.3 µM, first compound 0.1 µM
  viability, T/C: 56.1%
Second compound 0.949 µM, first compound 0.000316 µM
  viability, T/C: 92%
Second compound 0.949 µM, first compound 0.001 µM
  viability, T/C: 93%
Second compound 0.949 µM, first compound 0.00316 µM
  viability, T/C: 86.3%
Second compound 0.949 µM, first compound 0.01 µM
  viability, T/C: 89.9%
Second compound 0.949 µM, first compound 0.0316 µM
  viability, T/C: 71.7%
Second compound 0.949 µM, first compound 0.1 µM
  viability, T/C: 38%
Second compound 3 µM, first compound 0.000316 µM
  viability, T/C: 83.5%
Second compound 3 µM, first compound 0.001 µM
  viability, T/C: 85.9%
Second compound 3 µM, first compound 0.00316 µM
  viability, T/C: 79%
Second compound 3 µM, first compound 0.01 µM
  viability, T/C: 71.5%
Second compound 3 µM, first compound 0.0316 µM
  viability, T/C: 49.1%
Second compound 3 µM, first compound 0.1 µM
  viability, T/C: 22.7%
Second compound 9.49 µM, first compound 0.000316 µM
  viability, T/C: 81.4%
Second compound 9.49 µM, first compound 0.001 µM
  viability, T/C: 77.3%
Second compound 9.49 µM, first compound 0.00316 µM
  viability, T/C: 74.7%
Second compound 9.49 µM, first compound 0.01 µM
  viability, T/C: 60.5%
Second compound 9.49 µM, first compound 0.0316 µM
  viability, T/C: 30%
Second compound 9.49 µM, first compound 0.1 µM
  viability, T/C: 14.8%
Second compound 30 µM, first compound 0.000316 µM
  viability, T/C: 68.8%
Second compound 30 µM, first compound 0.001 µM
  viability, T/C: 70.4%
Second compound 30 µM, first compound 0.00316 µM
  viability, T/C: 56.5%
Second compound 30 µM, first compound 0.01 µM
  viability, T/C: 25.9%
Second compound 30 µM, first compound 0.0316 µM
  viability, T/C: 15.9%
Second compound 30 µM, first compound 0.1 µM
  viability, T/C: 8.24%

## Cn1cnc2c(F)c(Nc3ccc(Br)cc3Cl)c(C(=O)NOCCO)cc21 + CC(C)NCC(C(=O)N1CCN(c2ncnc3c2C(C)CC3O)CC1)c1ccc(Cl)cc1
Second compound 0.3 µM
  IC50: 396 nM
Second compound 0.949 µM
  IC50: 190 nM
Second compound 3 µM
  IC50: 161 nM
Second compound 9.49 µM
  IC50: 191 nM
Second compound 30 µM
  IC50: 66 nM
Second compound 0.3 µM, first compound 0.00949 µM
  viability, T/C: 81.5%
Second compound 0.3 µM, first compound 0.03 µM
  viability, T/C: 74.4%
Second compound 0.3 µM, first compound 0.0949 µM
  viability, T/C: 63.6%
Second compound 0.3 µM, first compound 0.3 µM
  viability, T/C: 55.6%
Second compound 0.3 µM, first compound 0.949 µM
  viability, T/C: 38.4%
Second compound 0.3 µM, first compound 3 µM
  viability, T/C: 17.4%
Second compound 0.949 µM, first compound 0.00949 µM
  viability, T/C: 82%
Second compound 0.949 µM, first compound 0.03 µM
  viability, T/C: 70.9%
Second compound 0.949 µM, first compound 0.0949 µM
  viability, T/C: 56.9%
Second compound 0.949 µM, first compound 0.3 µM
  viability, T/C: 45.6%
Second compound 0.949 µM, first compound 0.949 µM
  viability, T/C: 31.8%
Second compound 0.949 µM, first compound 3 µM
  viability, T/C: 18.9%
Second compound 3 µM, first compound 0.00949 µM
  viability, T/C: 77.1%
Second compound 3 µM, first compound 0.03 µM
  viability, T/C: 70.5%
Second compound 3 µM, first compound 0.0949 µM
  viability, T/C: 54.8%
Second compound 3 µM, first compound 0.3 µM
  viability, T/C: 42.1%
Second compound 3 µM, first compound 0.949 µM
  viability, T/C: 31%
Second compound 3 µM, first compound 3 µM
  viability, T/C: 18.4%
Second compound 9.49 µM, first compound 0.00949 µM
  viability, T/C: 73.4%
Second compound 9.49 µM, first compound 0.03 µM
  viability, T/C: 72.2%
Second compound 9.49 µM, first compound 0.0949 µM
  viability, T/C: 57%
Second compound 9.49 µM, first compound 0.3 µM
  viability, T/C: 44.3%
Second compound 9.49 µM, first compound 0.949 µM
  viability, T/C: 30.1%
Second compound 9.49 µM, first compound 3 µM
  viability, T/C: 18.8%
Second compound 30 µM, first compound 0.00949 µM
  viability, T/C: 61.5%
Second compound 30 µM, first compound 0.03 µM
  viability, T/C: 59.8%
Second compound 30 µM, first compound 0.0949 µM
  viability, T/C: 45.2%
Second compound 30 µM, first compound 0.3 µM
  viability, T/C: 34.2%
Second compound 30 µM, first compound 0.949 µM
  viability, T/C: 26.4%
Second compound 30 µM, first compound 3 µM
  viability, T/C: 13.2%
